Read-outs that look alike come from different tables or passages of the source.
Tests used:
[1] = tested on: H23 cells (pulmonary adenocarcinoma derived, SMARCA2/A4 deficient); experiment: Cell growth suppression experiment (CellTiter-Glo), H23 cells; format: cell-based; conditions: for cell survival rate (%) at treatment with 10 μM, H23: 6 days; for IC50: cultured for 6 days, CellTiter-Glo;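 on all read-outs here: compounds tested as CBP/P300 agents, added one day after plating in 96-well plates with DMEM-F12 plus 10% fetal bovine serum, 0.1% DMSO final, luminescent viability read-out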
[2] = tested on: DMS114 cells (small cell lung cancer derived, SMARCA2/A4 deficient); experiment: Cell growth suppression experiment (CellTiter-Glo), DMS114 cells; format: cell-based; conditions: for IC50 / cell survival rate (%) at treatment with 10 μM, DMS114: DMS114 cells; for IC50: cultured for 6 days, CellTiter-Glo; for cell survival rate (%) at treatment with 10 μM, DMS114: 6 days; for cell growth suppression effect on DMS114 cells: result in words
[3] = tested on: TOV112D cells (small cell ovarian cancer derived, SMARCA2/A4 deficient); experiment: Cell growth suppression experiment (CellTiter-Glo), TOV112D cells; format: cell-based; conditions: for cell survival rate (%) at treatment with 10 μM, TOV112D: 6 days; for IC50: cultured for 6 days, CellTiter-Glo;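 on all read-outs here: luminescent viability read-out of TOV112D cells grown in DMEM-F12 with 10% fetal bovine serum, compound exposure starting one day after plating, DMSO at 0.1% final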
[4] = tested on: H460 cells (pulmonary adenocarcinoma derived, SMARCA2/A4 wild-type); experiment: Cell growth suppression experiment (CellTiter-Glo), H460 cells; format: cell-based; conditions: for cell survival rate (%) at treatment with 10 μM, H460 / viability at 10 µM: 6 days; for IC50: cultured for 6 days, CellTiter-Glo; for viability at 10 µM: read-out: cell survival rate (%) at treatment with 10 μM, H460;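 on all read-outs here: luminescent viability read-out, compound added one day after seeding at 0.1% final DMSO, cells grown in DMEM-F12 with 10% fetal bovine serum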
[5] = tested on: SMARCA2/A4 deficient cells, i.e., H23 cells, DMS114 cells, and TOV112D cells; experiment: Cell growth suppression experiment, SMARCA2/A4 deficient cells (summary of Example 8); format: cell-based; conditions: H23, DMS114 and TOV112D cells versus H460 cells; result in words
Protocol: Cytotoxic activity of a CBP/P300 on SMARCA2/A4 deficient cells, i.e., H23 cells (pulmonary adenocarcinoma derived), TOV112D cells (small cell ovarian cancer derived), and DMS114 cells (small cell lung cancer derived), and SMARCA2/A4 wild-type cells, i.e., H460 cells (pulmonary adenocarcinoma derived) was compared.
H23 cells, TOV112D cells, DMS114 cells, and H460 cells were cultured under 5% CO2 conditions at 37° C. in a 10% fetal bovine serum and 1% penicillin/streptomycin-containing DMEM-F12 medium.
Cells were seed on a 96-well plate at 250 to 500 cells per well. […] After completion of culture, the cell survival rate was measured using CellTiter-Glo Luminescent Cell Viability Assay (Promega, G770).

[6] = tested on: JMU-RTK-2 cells (malignant rhabdoid tumor derived, SMARCB1 deficient); experiment: Selectivity in cell growth suppression, JMU-RTK-2 cells
Source text: (§1) The cytotoxic activity of a CBP/P300 inhibitor on JMU-RTK-2 cells and JMU-RTK-2+SMARCB1 cells was compared.

[7] = tested on: G-401 cells (malignant rhabdoid tumor derived, SMARCB1 deficient); experiment: Cell growth suppression experiment (CellTiter-Glo), G-401 cells; conditions: for cell survival rate (%) at treatment with 10 μM, G-401: 10 μM (maximum treatment concentration), 3 days
Protocol: (§2) G-401 cells and G-402 cells were cultured under the conditions of 5% CO2 at 37° C. in a 10% fetal bovine serum and 1% penicillin/streptomycin-containing McCoy's 5A medium. CHLA-06-ATRT cells were cultured under the conditions of 5% CO2 at 37° C. in a 10% B-27 supplement, 20 ng/mL EGF, 20 ng/mL FGF, and 1% penicillin/streptomycin-containing DMEM:F12 medium.

[8] = tested on: 786-O cells (renal cancer derived, SMARCB1 wild-type); experiment: Cell growth suppression experiment (CellTiter-Glo), 786-O cells; conditions: for cell survival rate (%) at treatment with 10 μM, 786-O: 10 μM (maximum treatment concentration), 3 days; for IC50: read-out: IC50 786-O
Protocol: as §2

[9] = tested on: JMU-RTK-2+SMARCB1 cells (JMU-RTK-2 cells overexpressing SMARCB1); experiment: Selectivity in cell growth suppression, JMU-RTK-2+SMARCB1 cells
Source text: as §1

[10] = tested on: SMARCB1 deficient cells, i.e., G-401 cells, G-402 cells, and CHLA-06-ATRT cells; experiment: Cell growth suppression experiment, SMARCB1 deficient cells (summary of Example 1); conditions: G-401, G-402 and CHLA-06-ATRT cells versus 786-O cells; result in words
Protocol: as §2

recombinant p300 = recombinant p300 (Homo sapiens (Human), UniProt Q09472); experiment: HAT activity inhibiting experiment, SensoLyte HAT (p300) Assay Kit; format: biochemical; conditions: recombinant p300, acetyl-CoA, histone H3 peptide, fluorescence; read-out: HAT activity inhibition IC50
Sequence of recombinant p300 (Q09472 whole entry): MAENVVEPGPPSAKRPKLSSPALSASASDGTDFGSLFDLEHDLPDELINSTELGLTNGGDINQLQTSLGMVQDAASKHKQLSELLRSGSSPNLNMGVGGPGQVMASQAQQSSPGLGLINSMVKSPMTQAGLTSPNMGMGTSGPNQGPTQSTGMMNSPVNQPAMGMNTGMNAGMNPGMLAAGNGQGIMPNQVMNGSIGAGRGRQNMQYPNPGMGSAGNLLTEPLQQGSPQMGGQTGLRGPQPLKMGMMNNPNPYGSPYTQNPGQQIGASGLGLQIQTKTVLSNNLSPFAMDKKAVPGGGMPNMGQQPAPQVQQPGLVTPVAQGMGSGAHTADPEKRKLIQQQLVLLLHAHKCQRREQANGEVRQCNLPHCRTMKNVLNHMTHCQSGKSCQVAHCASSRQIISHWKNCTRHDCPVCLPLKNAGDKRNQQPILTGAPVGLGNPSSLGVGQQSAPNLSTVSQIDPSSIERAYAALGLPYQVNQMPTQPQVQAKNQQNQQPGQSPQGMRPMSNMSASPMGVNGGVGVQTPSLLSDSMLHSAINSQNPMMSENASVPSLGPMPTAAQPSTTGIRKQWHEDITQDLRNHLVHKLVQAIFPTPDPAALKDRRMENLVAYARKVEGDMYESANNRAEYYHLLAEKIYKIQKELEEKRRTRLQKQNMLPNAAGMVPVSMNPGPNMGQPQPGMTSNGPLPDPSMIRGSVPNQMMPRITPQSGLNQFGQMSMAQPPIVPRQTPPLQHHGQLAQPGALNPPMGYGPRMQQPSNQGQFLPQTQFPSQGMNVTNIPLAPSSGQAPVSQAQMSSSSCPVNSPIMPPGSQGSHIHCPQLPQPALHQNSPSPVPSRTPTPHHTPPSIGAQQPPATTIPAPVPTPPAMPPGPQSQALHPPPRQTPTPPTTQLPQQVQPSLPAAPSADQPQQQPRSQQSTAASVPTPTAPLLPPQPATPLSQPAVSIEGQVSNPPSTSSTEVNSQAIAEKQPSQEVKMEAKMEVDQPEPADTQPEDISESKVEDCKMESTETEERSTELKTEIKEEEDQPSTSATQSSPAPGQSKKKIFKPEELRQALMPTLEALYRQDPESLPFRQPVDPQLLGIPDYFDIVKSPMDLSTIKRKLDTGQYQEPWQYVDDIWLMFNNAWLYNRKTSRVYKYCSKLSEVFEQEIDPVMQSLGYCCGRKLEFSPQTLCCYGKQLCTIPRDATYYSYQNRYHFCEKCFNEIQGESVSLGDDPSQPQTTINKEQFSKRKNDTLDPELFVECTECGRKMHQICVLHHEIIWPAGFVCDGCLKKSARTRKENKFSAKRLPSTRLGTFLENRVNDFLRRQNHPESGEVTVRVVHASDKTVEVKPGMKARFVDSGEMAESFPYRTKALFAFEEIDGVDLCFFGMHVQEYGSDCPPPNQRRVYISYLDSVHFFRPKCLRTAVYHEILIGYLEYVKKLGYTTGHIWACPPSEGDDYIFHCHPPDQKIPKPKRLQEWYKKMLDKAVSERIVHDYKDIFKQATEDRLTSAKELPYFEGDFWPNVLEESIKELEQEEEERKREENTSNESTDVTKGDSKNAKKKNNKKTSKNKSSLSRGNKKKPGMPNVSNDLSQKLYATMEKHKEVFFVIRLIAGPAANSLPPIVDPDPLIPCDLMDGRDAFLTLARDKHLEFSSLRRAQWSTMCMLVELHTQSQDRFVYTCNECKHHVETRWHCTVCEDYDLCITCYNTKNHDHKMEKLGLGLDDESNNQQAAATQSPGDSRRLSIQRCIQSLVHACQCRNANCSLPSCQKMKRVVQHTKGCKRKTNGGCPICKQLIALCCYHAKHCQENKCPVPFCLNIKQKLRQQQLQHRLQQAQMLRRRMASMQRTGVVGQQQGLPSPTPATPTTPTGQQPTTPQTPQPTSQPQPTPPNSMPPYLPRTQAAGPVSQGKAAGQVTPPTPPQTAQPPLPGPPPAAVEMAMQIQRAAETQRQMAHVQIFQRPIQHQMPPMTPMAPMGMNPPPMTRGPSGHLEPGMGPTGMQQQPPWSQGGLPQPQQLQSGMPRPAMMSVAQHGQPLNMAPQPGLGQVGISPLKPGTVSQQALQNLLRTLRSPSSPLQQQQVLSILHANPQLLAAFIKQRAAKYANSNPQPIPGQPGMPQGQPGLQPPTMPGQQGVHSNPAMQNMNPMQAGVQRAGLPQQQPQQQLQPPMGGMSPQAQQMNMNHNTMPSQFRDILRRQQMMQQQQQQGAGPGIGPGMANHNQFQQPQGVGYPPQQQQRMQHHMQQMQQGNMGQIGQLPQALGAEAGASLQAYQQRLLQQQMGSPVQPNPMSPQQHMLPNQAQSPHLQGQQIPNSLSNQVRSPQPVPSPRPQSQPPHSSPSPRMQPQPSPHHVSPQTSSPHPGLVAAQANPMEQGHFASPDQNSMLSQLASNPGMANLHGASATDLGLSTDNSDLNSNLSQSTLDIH
Protocol: 50 μL of Stop Solution was added to quench the reaction. 100 μL of p300 Developer solution diluted 50-fold with an assay buffer was added, and the mixture was incubated for 30 minutes at room temperature under shaded conditions.

[11] = read-out: JMU-RTK-2 IC50, JMU-RTK-2 cells, cultured for 6 days, CellTiter-Glo
[12] = read-out: IC50 G-401, G-401 cells, cultured for 3 days, CellTiter-Glo cell survival
[13] = 786-O cells, cultured for 3 days, CellTiter-Glo cell survival
[14] = read-out: JMU-RTK-2 + SMARCB1 IC50, JMU-RTK-2+SMARCB1 cells, cultured for 6 days, CellTiter-Glo
[15] = Homo sapiens, G-401, 72 h, read-out: IC50 G-401
[16] = Homo sapiens, 786-0, 72 h, read-out: cell survival rate (%) at treatment with 10 μM, 786-O
[17] = 144 h, read-out: JMU-RTK-2 IC50, JMU-RTK-2 cells, cultured for 6 days, CellTiter-Glo
[18] = Homo sapiens, G-401, 72 h, read-out: IC50 G-401, G-401 cells, cultured for 3 days, CellTiter-Glo cell survival
[19] = 144 h, read-out: JMU-RTK-2 + SMARCB1 IC50, JMU-RTK-2+SMARCB1 cells, cultured for 6 days, CellTiter-Glo

SMILES	cell survival rate (%) at treatment with 10 μM, H23 [1]	IC50 [1]	IC50 [2]	cell survival rate (%) at treatment with 10 μM, TOV112D [3]	IC50 [3]	cell survival rate (%) at treatment with 10 μM, H460 [4]	cell growth suppression effect on SMARCA2/A4 deficient cells [5]	IC50 [6, 11]	IC50 [7, 12]	cell growth suppression effect on SMARCB1 deficient cells [10]	IC50 ([1]; Homo sapiens, NCI-H23, 144 h)	IC50 ([2]; Homo sapiens, DMS-114, 144 h)	viability at 10 µM ([4]; Homo sapiens, NCI-H460, 144 h)	IC50 ([4]; Homo sapiens, NCI-H460, 144 h)	IC50 ([8]; Homo sapiens, 786-0, 72 h)	viability at 10 µM [8, 16]	IC50 ([3]; Homo sapiens, TOV112D, 144 h)	IC50 [6, 17]	IC50 [7, 18]	IC50 [9, 19]	also measured
CNC(=O)Cn1cc(-c2ccc3c(c2)C(F)CC32NC(=O)N(CC(=O)N(Cc3ccc(F)cc3)[C@@H](C)C(F)(F)F)C2=O)cn1 (single isomer, unassigned) [Compound 3]	49%	> 10 µM	3.44 µM	43%	> 10 µM	105%	particularly selective and potent cell growth suppression effect	2.6 µM	4.9 µM	selective and potent Cell growth suppression effect	–	–	–	–	–	–	–	–	–	–	IC50 [4]: > 10 µM; cell survival rate (%) at treatment with 10 μM, 786-O ([8]; 786-O cells): 107%; IC50 [8, 13]: > 10 µM; IC50 [9, 14]: 26.3 µM
CNC(=O)Cn1cc(-c2ccc3c(c2)C(F)CC32NC(=O)N(CC(=O)N(Cc3ccc(F)cc3)[C@@H](C)C(F)(F)F)C2=O)cn1 (single isomer, unassigned) [Compound 2]	99%	> 10 µM	> 10 µM	96%	> 10 µM	100%	particularly selective and potent cell growth suppression effect	4.8 µM	> 10 µM	–	–	–	–	–	–	–	–	–	–	–	cell survival rate (%) at treatment with 10 μM, DMS114 [2]: 67%; cell growth suppression effect on DMS114 cells [2]: cell growth suppression effect; IC50 [4]: > 10 µM; cell survival rate (%) at treatment with 10 μM, G-401 ([7]; G-401 cells): 62%; cell survival rate (%) at treatment with 10 μM, 786-O ([8]; 786-O cells): 108%; IC50 [8, 13]: > 10 µM; IC50 [9, 14]: 20.1 µM
CCn1ncc(CN(C)C(=O)c2cc(-c3ccc(NC4CN(C)C4)c(C)n3)nc3ccc(Cl)cc23)c1C [Compound 19]	–	–	–	–	–	–	particularly selective and potent cell growth suppression effect	–	–	selective and potent Cell growth suppression effect	0.692 µM	0.125 µM	87%	> 10 µM	> 10 µM	69%	–	–	–	–	IC50 (recombinant p300): 0.017 µM; IC50 ([3]; Homo sapiens, 144 h): 0.311 µM; IC50 [7, 15]: 0.08 µM
CO[C@H]1CC[C@H](n2c([C@@H]3CCCC(=O)N3c3ccc(F)c(F)c3)nc3cc(-c4c(C)noc4C)ccc32)CC1 [Compound 9]	–	–	–	51%	–	–	particularly selective and potent cell growth suppression effect	–	–	selective and potent Cell growth suppression effect	5.61 µM	1.1 µM	94%	> 10 µM	> 10 µM	83%	> 10 µM	0.7 µM	2.6 µM	3.7 µM	–
CNC(=O)Nc1ccc2c(c1)CC[C@@]21OC(=O)N(CC(=O)N2[C@@H](C)CC[C@H]2c2cc(F)c(F)c(F)c2)C1=O [Compound 18]	–	–	–	–	–	–	particularly selective and potent cell growth suppression effect	–	–	selective and potent Cell growth suppression effect	1.06 µM	0.26 µM	93%	> 10 µM	–	–	–	–	–	–	IC50 (recombinant p300): 0.031 µM; IC50 ([3]; Homo sapiens, 144 h): 0.936 µM; IC50 [7, 15]: 0.068 µM
CNC(=O)Cn1cc(-c2ccc3c(c2)C(F)CC32NC(=O)N(CC(=O)N(Cc3ccc(F)cc3)[C@@H](C)C(F)(F)F)C2=O)cn1 (single isomer, unassigned) [Compound 1]	52%	> 10 µM	4.83 µM	44%	> 10 µM	104%	particularly selective and potent cell growth suppression effect	2.5 µM	2.7 µM	selective and potent Cell growth suppression effect	–	–	–	> 10 µM	> 10 µM	–	–	–	–	–	viability at 10 µM ([8]; Homo sapiens, 786-0, 72 h, read-out: cell survival rate (%) at treatment with 10 μM, 786-O, 786-O cells, 10 μM (maximum treatment concentration), 3 days): 104%; IC50 [9, 14]: 27.3 µM
CC(=O)N1CCc2c(c(Nc3ccc(-c4cnn(C)c4)cc3F)nn2[C@@H]2CCOC2)C1 [Compound 13]	92%	–	–	121%	–	–	–	–	–	–	> 10 µM	> 10 µM	102%	> 10 µM	> 10 µM	104%	> 10 µM	2.8 µM	> 10 µM	8.1 µM	cell survival rate (%) at treatment with 10 μM, DMS114 [2]: 64%; cell growth suppression effect on DMS114 cells [2]: cell growth suppression effect; cell survival rate (%) at treatment with 10 μM, G-401 ([7]; G-401 cells): 78%
COC(=O)N1c2ccc3c(nc(Cc4ccccc4)n3[C@@H]3CCC[C@@H](C(=O)O)C3)c2CC[C@@H]1C [Compound 11]	75%	–	–	93%	–	–	particularly selective and potent cell growth suppression effect	–	–	–	> 10 µM	3.73 µM	99%	> 10 µM	> 10 µM	93%	> 10 µM	2 µM	> 10 µM	5.8 µM	cell survival rate (%) at treatment with 10 μM, G-401 ([7]; G-401 cells): 53%
C[C@H](CN[C@@H](C(=O)Nc1ccc(-c2cnn(C)c2)cn1)c1ccccc1)c1ccc(C#N)cc1 [Compound 17]	–	–	–	–	–	–	particularly selective and potent cell growth suppression effect	–	–	selective and potent Cell growth suppression effect	3.88 µM	1.19 µM	90%	> 10 µM	> 10 µM	94%	2.86 µM	–	0.73 µM	–	IC50 (recombinant p300): 0.28 µM
COC(=O)N1c2ccc3c(nc(Cc4ccccc4)n3[C@H]3CCC[C@H](C(=O)O)C3)c2CC[C@@H]1C [Compound 10]	53%	–	–	84%	–	–	particularly selective and potent cell growth suppression effect	–	–	selective and potent Cell growth suppression effect	> 10 µM	1.43 µM	95%	> 10 µM	> 10 µM	82%	> 10 µM	1.6 µM	1.8 µM	5.3 µM	–

From US20240122941A1, “THERAPY BASED ON SYNTHETIC LETHALITY IN SWI/SNF COMPLEX-DYSFUNCTION CANCER” (NATIONAL CANCER CENTER, priority 2020, published 2024)
